Data reported in ChEMBL document CHEMBL3885881, “DrugMatrix”.

Species: Rattus norvegicus
Assay: DrugMatrix - Regimen: Daily Repeat
Format: toxicity, organism-based, Sprague-Dawley
Parameters: regimen Daily Repeat, gender Male, age 6-8 weeks
Details: in vivo, po, route oral GAVAGE, vehicle 100 % WATER; for BASOPHIL / EOSINOPHIL / ERYTHROCYTE COUNT / HEMATOCRIT / HEMOGLOBIN / LEUKOCYTE COUNT / LYMPHOCYTE / MEAN CORPUSCULAR HEMOGLOBIN / MEAN CORPUSCULAR HEMOGLOBIN CONCENTRATION / MEAN CORPUSCULAR VOLUME / MONOCYTE / NEUTROPHIL / PLATELET COUNT: tissue Blood; for ALANINE AMINOTRANSFERASE / ALBUMIN / ALKALINE PHOSPHATASE / ASPARTATE AMINOTRANSFERASE / BLOOD UREA NITROGEN / CHLORIDE / CHOLESTEROL / CREATINE PHOSPHOKINASE / CREATININE / GLUCOSE / PHOSPHORUS / POTASSIUM / SODIUM / TOTAL BILIRUBIN / TOTAL PROTEIN: tissue Plasma
[1] = 0 mg/kg, 72 h, dose level Control, time 3 day
[2] = 0 mg/kg, 120 h, dose level Control, time 5 day
[3] = 100 mg/kg, 72 h, dose level Low, time 3 day
[4] = 100 mg/kg, 120 h, dose level Low, time 5 day
[5] = 1000 mg/kg, 72 h, dose level High, time 3 day
[6] = 1000 mg/kg, 120 h, dose level High, time 5 day

What does the source list for Oc1cccc(O)c1O [PYROGALLOL]?
BASOPHIL [1]: 0%; EOSINOPHIL [1]: 0.5%; ERYTHROCYTE COUNT [1]: 5.8 x10E6/uL; HEMATOCRIT [1]: 35.07%; HEMOGLOBIN [1]: 14.12 G/DL; LEUKOCYTE COUNT [1]: 13.7 x10E3/uL; LYMPHOCYTE [1]: 82.33%; MEAN CORPUSCULAR HEMOGLOBIN [1]: 24.38 pg; MEAN CORPUSCULAR HEMOGLOBIN CONCENTRATION [1]: 40.28 G/DL; MEAN CORPUSCULAR VOLUME [1]: 60.52 fL; MONOCYTE [1]: 2.67%; NEUTROPHIL [1]: 14.5%; PLATELET COUNT [1]: 911.5 x10E3/uL; ALANINE AMINOTRANSFERASE [1]: 36.83 u/L; ALBUMIN [1]: 3.75 G/DL; ALKALINE PHOSPHATASE [1]: 399.83 u/L; ASPARTATE AMINOTRANSFERASE [1]: 66 u/L; BLOOD UREA NITROGEN [1]: 14.67 mg/dL; CHLORIDE [1]: 101.67 MEQ/L; CHOLESTEROL [1]: 66.33 mg/dL; CREATINE PHOSPHOKINASE [1]: 139.5 u/L; CREATININE [1]: 0.92 mg/dL; GLUCOSE [1]: 175 mg/dL; PHOSPHORUS [1]: 11.42 mg/dL; POTASSIUM [1]: 7.03 MEQ/L; SODIUM [1]: 148.5 MEQ/L; TOTAL BILIRUBIN [1]: 1.13 mg/dL; TOTAL PROTEIN [1]: 6.87 G/DL; BASOPHIL [2]: 0%; EOSINOPHIL [2]: 0.2%; ERYTHROCYTE COUNT [2]: 6.02 x10E6/uL; HEMATOCRIT [2]: 36.48%; HEMOGLOBIN [2]: 14.38 G/DL; LEUKOCYTE COUNT [2]: 12.34 x10E3/uL; LYMPHOCYTE [2]: 83%; MEAN CORPUSCULAR HEMOGLOBIN [2]: 23.92 pg; MEAN CORPUSCULAR HEMOGLOBIN CONCENTRATION [2]: 39.44 G/DL; MEAN CORPUSCULAR VOLUME [2]: 60.66 fL; MONOCYTE [2]: 3%; NEUTROPHIL [2]: 13.8%; PLATELET COUNT [2]: 1190.6 x10E3/uL; ALANINE AMINOTRANSFERASE [2]: 43 u/L; ALBUMIN [2]: 3.73 G/DL; ALKALINE PHOSPHATASE [2]: 393 u/L; ASPARTATE AMINOTRANSFERASE [2]: 62.33 u/L; BLOOD UREA NITROGEN [2]: 16.33 mg/dL; CHLORIDE [2]: 101.67 MEQ/L; CHOLESTEROL [2]: 65.5 mg/dL; CREATINE PHOSPHOKINASE [2]: 130.67 u/L; CREATININE [2]: 0.58 mg/dL; GLUCOSE [2]: 180.67 mg/dL; PHOSPHORUS [2]: 11.28 mg/dL; POTASSIUM [2]: 7.05 MEQ/L; SODIUM [2]: 148.17 MEQ/L; TOTAL BILIRUBIN [2]: 0.72 mg/dL; TOTAL PROTEIN [2]: 6.83 G/DL; BASOPHIL [3]: 0%; EOSINOPHIL [3]: 0.5%; ERYTHROCYTE COUNT [3]: 5.78 x10E6/uL; HEMATOCRIT [3]: 35.75%; HEMOGLOBIN [3]: 13.85 G/DL; LEUKOCYTE COUNT [3]: 11.7 x10E3/uL; LYMPHOCYTE [3]: 88%; MEAN CORPUSCULAR HEMOGLOBIN [3]: 24.05 pg; MEAN CORPUSCULAR HEMOGLOBIN CONCENTRATION [3]: 38.75 G/DL; MEAN CORPUSCULAR VOLUME [3]: 61.95 fL; MONOCYTE [3]: 1%; NEUTROPHIL [3]: 10.5%; PLATELET COUNT [3]: 1307.5 x10E3/uL; ALANINE AMINOTRANSFERASE [3]: 36.33 u/L; ALBUMIN [3]: 3.67 G/DL; ALKALINE PHOSPHATASE [3]: 323 u/L; ASPARTATE AMINOTRANSFERASE [3]: 59.33 u/L; BLOOD UREA NITROGEN [3]: 13 mg/dL; CHLORIDE [3]: 101.33 MEQ/L; CHOLESTEROL [3]: 71 mg/dL; CREATINE PHOSPHOKINASE [3]: 134.67 u/L; CREATININE [3]: 0.6 mg/dL; GLUCOSE [3]: 200 mg/dL; PHOSPHORUS [3]: 13.27 mg/dL; POTASSIUM [3]: 7.37 MEQ/L; SODIUM [3]: 149.67 MEQ/L; TOTAL BILIRUBIN [3]: 0.5 mg/dL; TOTAL PROTEIN [3]: 6.67 G/DL; BASOPHIL [4]: 0%; EOSINOPHIL [4]: 0%; ERYTHROCYTE COUNT [4]: 6.06 x10E6/uL; HEMATOCRIT [4]: 36.63%; HEMOGLOBIN [4]: 14.83 G/DL; LEUKOCYTE COUNT [4]: 14.27 x10E3/uL; LYMPHOCYTE [4]: 90.67%; MEAN CORPUSCULAR HEMOGLOBIN [4]: 24.53 pg; MEAN CORPUSCULAR HEMOGLOBIN CONCENTRATION [4]: 40.53 G/DL; MEAN CORPUSCULAR VOLUME [4]: 60.5 fL; MONOCYTE [4]: 2.33%; NEUTROPHIL [4]: 7%; PLATELET COUNT [4]: 1156 x10E3/uL; ALANINE AMINOTRANSFERASE [4]: 34.67 u/L; ALBUMIN [4]: 3.8 G/DL; ALKALINE PHOSPHATASE [4]: 375.67 u/L; ASPARTATE AMINOTRANSFERASE [4]: 59 u/L; BLOOD UREA NITROGEN [4]: 14 mg/dL; CHLORIDE [4]: 103.67 MEQ/L; CHOLESTEROL [4]: 67.33 mg/dL; CREATINE PHOSPHOKINASE [4]: 95.67 u/L; CREATININE [4]: 0.6 mg/dL; GLUCOSE [4]: 184.67 mg/dL; PHOSPHORUS [4]: 11.97 mg/dL; POTASSIUM [4]: 6.8 MEQ/L; SODIUM [4]: 151.67 MEQ/L; TOTAL BILIRUBIN [4]: 0.5 mg/dL; TOTAL PROTEIN [4]: 6.87 G/DL; BASOPHIL [5]: 0%; EOSINOPHIL [5]: 0.67%; ERYTHROCYTE COUNT [5]: 4.74 x10E6/uL; HEMATOCRIT [5]: 27.07%; HEMOGLOBIN [5]: 11.3 G/DL; LEUKOCYTE COUNT [5]: 18.97 x10E3/uL; LYMPHOCYTE [5]: 64%; MEAN CORPUSCULAR HEMOGLOBIN [5]: 23.87 pg; MEAN CORPUSCULAR HEMOGLOBIN CONCENTRATION [5]: 41.93 G/DL; MEAN CORPUSCULAR VOLUME [5]: 57.07 fL; MONOCYTE [5]: 1%; NEUTROPHIL [5]: 34.33%; PLATELET COUNT [5]: 1411 x10E3/uL; ALANINE AMINOTRANSFERASE [5]: 107.67 u/L; ALBUMIN [5]: 3.83 G/DL; ALKALINE PHOSPHATASE [5]: 223 u/L; ASPARTATE AMINOTRANSFERASE [5]: 109.33 u/L; BLOOD UREA NITROGEN [5]: 10.33 mg/dL; CHLORIDE [5]: 101.67 MEQ/L; CHOLESTEROL [5]: 67.33 mg/dL; CREATINE PHOSPHOKINASE [5]: 171 u/L; CREATININE [5]: 0.63 mg/dL; GLUCOSE [5]: 206.33 mg/dL; PHOSPHORUS [5]: 12.3 mg/dL; POTASSIUM [5]: 6.63 MEQ/L; SODIUM [5]: 149 MEQ/L; TOTAL BILIRUBIN [5]: 1.13 mg/dL; TOTAL PROTEIN [5]: 6.83 G/DL; BASOPHIL [6]: 0%; EOSINOPHIL [6]: 0%; ERYTHROCYTE COUNT [6]: 3.96 x10E6/uL; HEMATOCRIT [6]: 24.15%; HEMOGLOBIN [6]: 9.8 G/DL; LEUKOCYTE COUNT [6]: 13 x10E3/uL; LYMPHOCYTE [6]: 85.5%; MEAN CORPUSCULAR HEMOGLOBIN [6]: 24.9 pg; MEAN CORPUSCULAR HEMOGLOBIN CONCENTRATION [6]: 40.55 G/DL; MEAN CORPUSCULAR VOLUME [6]: 61.35 fL; MONOCYTE [6]: 2.5%; NEUTROPHIL [6]: 12%; PLATELET COUNT [6]: 1586 x10E3/uL; ALANINE AMINOTRANSFERASE [6]: 45 u/L; ALBUMIN [6]: 3.85 G/DL; ALKALINE PHOSPHATASE [6]: 303 u/L; ASPARTATE AMINOTRANSFERASE [6]: 67 u/L; BLOOD UREA NITROGEN [6]: 12 mg/dL; CHLORIDE [6]: 105 MEQ/L; CHOLESTEROL [6]: 49.5 mg/dL; CREATINE PHOSPHOKINASE [6]: 75 u/L; CREATININE [6]: 0.45 mg/dL; GLUCOSE [6]: 223.5 mg/dL; PHOSPHORUS [6]: 12.75 mg/dL; POTASSIUM [6]: 7.2 MEQ/L; SODIUM [6]: 148.5 MEQ/L; TOTAL BILIRUBIN [6]: 0.9 mg/dL; TOTAL PROTEIN [6]: 7.05 G/DL
